Data taken from paper PMC9654533, “Potent Alkaline Phosphatase Inhibitors, Pyrazolo-Oxothiazolidines: Synthesis, Biological Evaluation, Molecular Docking, and Kinetic Studies” (International Journal of Molecular Sciences, 2022).
Entries after “also recorded” stand apart in the source; their conditions may differ.

Tests used:
[1] = molecular target: T1, calf intestinal alkaline phosphatase (CIAP) (Bos taurus, UniProt P19111); test: Alkaline phosphatase inhibition assay (spectrophotometric, p-NPP substrate); assay type: biochemical; settings: for IC50: CIAP, p-NPP substrate, pH 9.5, 37 °C, mean ± SEM
Protocol: As previously mentioned, spectrophotometric analysis was used to evaluate the activity of calf intestinal alkaline phosphatase (CIAP). The reaction mixture contained 50 mM Tris-HCl buffer (5 mM MgCl2, 0.1 mM ZnCl2 pH 9.5), the 10 µL compound, and it was preincubated for 10 min by adding 5 µL of CIAP (0.025 U/mL). Then, 10 µL of a substrate (0.5 mM p-NPP (para nitrophenyl phosphate disodium salt)) was delivered to initiate the response, and therefore the assay mixture became incubated once more for 30 min at 37 °C. The change in absorbance of released p-nitrophenolate was monitored at 405 nm, using a 96-well microplate reader (Thermo Scientific Multiskan GO, USA). All the experiments were repeated three times in a triplicate manner. […] The inhibition activity was calculated according to the following equation: Inhibition (%)=[(Blank−Sample)/Blank]×100
For calculation of the IC50 values, 6–8 serial dilutions were used and the results examined using the non-linear regression analysis of GraphPad Prism 5 [69].

[2] = MTT cell viability assay; assay type: cell-based; settings: human, MG-63 osteosarcoma cells, MG-63 cells
Protocol: The human osteosarcoma MG-63 cells were acquired from the Korean Cell Line Bank (Seoul, Korea). The MG-63 cell lines were incubated in the humidified atmosphere at 37 °C containing 5% CO2 and maintained in the DMEM (Sigma, St. Louis, MO, USA), supplemented with 10% fetal bovine serum (FBS, WELGENE, Korea) and 50 unit/mL penicillin (Sigma) and 50 μg/mL streptomycin (Sigma). The medium was completely renewed every two days. The synthesized compounds were completely dissolved in dimethyl sulfoxide (DMSO) and further diluted to various concentrations (0, 0.5, 1, 2, and 4 µM). The control groups were treated with the same amount of DMSO. MTT assay technique was applied to check the toxic effect of our compounds. The MG-63 cell lines were seeded onto 96-well plates at a density of 0.4 × 10^5 cells/well with the medium for 24 h. After reaching 50% density, the cells were exposed to synthesized target compounds at the dose of 0, 0.5, 1, 2, and 4 µM for 24 h in media. […] After 24 h, the cell sustained 100 μL DMEM containing of 0.5 mg/mL 3-(4,5-dimethylthiazol-2-yl)-2,5-diphenyltetrazolium bromide (MTT) at 37 °C for 4 h. Then, the purple formazan crystals were dissolved with 100 μL of buffer (10% SDS, 0.01 N HCl). Finally, the absorbance was measured at 570 nm using a microplate reader (Thermo Fisher, Waltham, MA, USA).

[3] = molecular target: ALP; settings: ALP inhibitors; cited from earlier work
[4] = system: tissue-specific isozymes (PLALP, GCALP, and IALP) versus L/B/K ALPs; set-up: method as in PMID 2178806; settings: cited from earlier work
[5] = molecular target: T1, calf intestinal alkaline phosphatase (CIAP); test: Kinetic mechanism analysis (Lineweaver-Burk plot); assay type: biochemical
Protocol: The inhibitor (7g), and substrate p-NPP concentrations were used at 0.00, 0.023, 0.045 and 0.091 µM, 10, 5, 2.5, 1.25, 0.625 and 0.3125 mM, respectively. The pre-incubation time and other conditions were the same as those mentioned in the section on the CIAP assay. Maximal initial velocities were determined from the initial linear portion of absorbances up to 10 min after the addition of enzyme per minute interval. The inhibition type of the enzyme was assayed by the Lineweaver–Burk plot of inverse velocities (1/V) versus the inverse of substrate concentration 1/[S] mM^−1. The EI dissociation constant Ki was determined by a secondary plot of 1/V versus inhibitor concentration.

[6] = DPPH free radical scavenging assay; settings: 100 µg/mL
Protocol: Free radical scavenging activity was determined by modifying the method by DPPH assay. The assay solution composed of the 100 μL of DPPH (150 μM) and 20 μL of the sample (100 μg/mL) was introduced to gain the final volume of each well up to 200 μL with methyl alcohol. Then, it was incubated in the dark at room temperature for the following half-hour. Ascorbic acid (Vitamin C) was used as a reference inhibitor. The measurements were performed by using a microplate reader (Thermo Scientific Multiskan GO, USA) at 517 nm. Each experiment was carried out in triplicate.

T1 sequence (P19111 20-533): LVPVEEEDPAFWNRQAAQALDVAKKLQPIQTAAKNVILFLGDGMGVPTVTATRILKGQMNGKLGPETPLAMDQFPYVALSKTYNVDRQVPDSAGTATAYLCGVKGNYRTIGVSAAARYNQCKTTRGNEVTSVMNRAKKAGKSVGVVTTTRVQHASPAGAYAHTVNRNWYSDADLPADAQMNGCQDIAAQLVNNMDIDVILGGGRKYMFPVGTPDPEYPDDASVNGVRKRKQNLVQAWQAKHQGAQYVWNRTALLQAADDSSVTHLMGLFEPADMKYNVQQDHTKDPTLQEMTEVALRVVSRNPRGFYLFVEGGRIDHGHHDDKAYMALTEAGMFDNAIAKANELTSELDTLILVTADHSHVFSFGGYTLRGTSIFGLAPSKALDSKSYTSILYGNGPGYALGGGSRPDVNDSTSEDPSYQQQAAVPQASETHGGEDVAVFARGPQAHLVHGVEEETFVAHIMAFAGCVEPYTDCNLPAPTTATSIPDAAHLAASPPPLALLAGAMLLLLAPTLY

| melting point | IC50 [1] | SMILES | other results |
| --- | --- | --- | --- |
| 216 to 218 °C | 2990 ± 734 nM | CCOC(=O)C=C1SC(N2N=C(c3ccccc3)CC2c2ccccc2)=NC1=O (stereo not drawn) [Compound 7n, Ethyl-2-(2-(3,5-diphenyl-4,5-dihydro-1H-pyrazol-1-yl)-4-oxothiazol-5(4H)-ylidene)acetate] | – |
| 202 to 204 °C | 293 ± 39 nM | CCOC(=O)C=C1SC(N2N=C(c3ccccc3)CC2c2ccc(OCc3ccccc3)c(OC)c2)=NC1=O (stereo not drawn) [Compound 7d, Ethyl-2-(2-(5-(4-(benzyloxy)-3-methoxyphenyl)-3-phenyl-4,5-dihydro-1H-pyrazol-1-yl)-4-oxothiazol-5(4H)-ylidene)acetate] | – |
| 167 to 169 °C | 434 ± 11 nM | CCOC(=O)C=C1SC(N2N=C(c3ccc(OC)cc3)CC2c2ccccc2)=NC1=O (stereo not drawn) [Compound 7j, Ethyl-2-(2-(3-(4-methoxyphenyl)-5-phenyl-4,5-dihydro-1H-pyrazol-1-yl)-4-oxothiazol-5(4H)-ylidene)acetate] | viability at 24 h, 4 µM [2]: ≤ 70% |
| 218 to 220 °C | 907 ± 41 nM | CCOC(=O)C=C1SC(N2N=C(c3ccc(OC)cc3)CC2c2ccc(Br)cc2)=NC1=O (stereo not drawn) [Compound 7h, Ethyl-2-(2-(5-(4-bromophenyl)-3-(4-methoxyphenyl)-4,5-dihydro-1H-pyrazol-1-yl)-4-oxothiazol-5(4H)-ylidene)acetate] | – |
| 210 to 212 °C | 315 ± 17 nM | CCOC(=O)C=C1SC(N2N=C(c3ccc(OC)cc3)CC2c2ccc(F)cc2)=NC1=O (stereo not drawn) [Compound 7i, Ethyl-2-(2-(5-(4-fluorophenyl)-3-(4-methoxyphenyl)-4,5-dihydro-1H-pyrazol-1-yl)-4-oxothiazol-5(4H)-ylidene)acetate] | – |
| – | – | Cn1c(=O)c2[nH]cnc2n(C)c1=O [theophylline] | Ki [3]: 82000 nM |
| 251 to 253 °C | 51 ± 19 nM | CCOC(=O)C=C1SC(N2N=C(c3ccccc3)CC2c2ccc(Cl)cc2)=NC1=O (stereo not drawn) [Compound 7l, Ethyl-2-(2-(5-(4-chlorophenyl)-3-phenyl-4,5-dihydro-1H-pyrazol-1-yl)-4-oxothiazol-5(4H)-ylidene)acetate] | – |
| 220 to 222 °C | 302 ± 4 nM | CCOC(=O)C=C1SC(N2N=C(c3ccc(OC)cc3)CC2c2ccc(Cl)cc2)=NC1=O (stereo not drawn) [Compound 7m, Ethyl-2-(2-(5-(4-chlorophenyl)-3-(4-methoxyphenyl)-4,5-dihydro-1H-pyrazol-1-yl)-4-oxothiazol-5(4H)-ylidene)acetate] | viability at 24 h, 4 µM [2]: ≤ 70% |
| – | – | N[C@@H](Cc1ccccc1)C(=O)O [L-phenylalanine] | sensitivity of inhibition of tissue-specific isozymes (PLALP, GCALP, IALP) relative to L/B/K ALPs [4]: 30 times |
| 226 to 228 °C | 2300 ± 151 nM | CCOC(=O)C=C1SC(N2N=C(c3ccccc3)CC2c2ccc(C)cc2)=NC1=O (stereo not drawn) [Compound 7b, Ethyl-2-(4-oxo-2-(3-phenyl-5-(p-tolyl)-4,5-dihydro-1H-pyrazol-1-yl)thiazol-5(4H)-ylidene)acetate] | – |
| 228 to 230 °C | 45 ± 4 nM | CCOC(=O)C=C1SC(N2N=C(c3ccc(OC)cc3)CC2c2ccc(OCc3ccccc3)c(OC)c2)=NC1=O (stereo not drawn) [Compound 7g, Ethyl-2-(2-(5-(4-(benzyloxy)-3-methoxyphenyl)-3-(4-methoxyphenyl)-4,5-dihydro-1H-pyrazol-1-yl)-4-oxothiazol-5(4H)-ylidene)acetate] | Inhibition Type ([5]; Lineweaver-Burk plot, substrate p-NPP): non-competitively; also recorded: Non-Competitive; Vmax ([5]; inhibitor 7g concentration 0.023 µM): 0.0014 ΔA/Min; Vmax ([5]; inhibitor 7g concentration 0.045 µM): 0.0011 ΔA/Min; Vmax ([5]; inhibitor 7g concentration 0.091 µM): 0.0009 ΔA/Min; Ki ([5]; secondary plot of slope versus inhibitor concentration, read-out: Ki (EI dissociation constant)): 93 nM; Km ([5]; substrate p-NPP, inhibitor 7g concentration 0.023 µM): 500 µM; Km ([5]; substrate p-NPP, inhibitor 7g concentration 0.045 µM): 500 µM; Km ([5]; substrate p-NPP, inhibitor 7g concentration 0.091 µM): 500 µM; DPPH free radical scavenging (inhibition) [6]: 29.7%; fold more active than monopotassium phosphate (IC50 ratio) ([1]; versus standard reference monopotassium phosphate): 116 fold |
| 236 to 238 °C | 198 ± 18 nM | CCOC(=O)C=C1SC(N2N=C(c3ccccc3)CC2c2ccc(OC)cc2)=NC1=O (stereo not drawn) [Compound 7c, Ethyl-2-(2-(5-(4-methoxyphenyl)-3-phenyl-4,5-dihydro-1H-pyrazol-1-yl)-4-oxothiazol-5(4H)-ylidene)acetate] | – |
| > 260 °C | 566 ± 48 nM | CCOC(=O)C=C1SC(N2N=C(c3ccc(OC)cc3)CC2c2ccc(Cl)cc2Cl)=NC1=O (stereo not drawn) [Compound 7f, Ethyl-2-(2-(5-(2,4-dichlorophenyl)-3-(4-methoxyphenyl)-4,5-dihydro-1H-pyrazol-1-yl)-4-oxothiazol-5(4H)-ylidene)acetate] | – |
| 208 to 210 °C | 228 ± 12 nM | CCOC(=O)C=C1SC(N2N=C(c3ccc(OC)cc3)CC2c2ccc(C)cc2)=NC1=O (stereo not drawn) [Compound 7e, Ethyl-2-(2-(3-(4-methoxyphenyl)-5-(p-tolyl)-4,5-dihydro-1H-pyrazol-1-yl)-4-oxothiazol-5(4H)-ylidene)acetate] | viability at 24 h, 4 µM [2]: ≤ 70% |
| – | – | C#Cc1cccc(Nc2ncnc3cc(OCCOC)c(OCCOC)cc23)c1 [erlotinib, reference compound] | viability at 24 h, 2 µM ([2]; first three treatments (0.5, 1, 2 µM)): > 90% |
| – | – | c1ccc([C@H]2CN3CCSC3=N2)cc1 [levamisole] | Ki [3]: 16000 nM |
| 242 to 244 °C | 53 ± 1 nM | CCOC(=O)C=C1SC(N2N=C(c3ccccc3)CC2c2ccc(Br)cc2)=NC1=O (stereo not drawn) [Compound 7a, Ethyl-2-(2-(5-(4-bromophenyl)-3-phenyl-4,5-dihydro-1H-pyrazol-1-yl)-4-oxothiazol-5(4H)-ylidene)acetate] | – |
| 208 to 210 °C | 75 ± 5 nM | CCOC(=O)C=C1SC(N2N=C(c3ccc(OC)cc3)CC2c2ccc(OC)cc2)=NC1=O (stereo not drawn) [Compound 7k, Ethyl-2-(2-(3,5-bis(4-methoxyphenyl)-4,5-dihydro-1H-pyrazol-1-yl)-4-oxothiazol-5(4H)-ylidene)acetate] | – |
